Peptide text beside a SMILES is read from it.
What was measured:
Format in all cases: cell-based
huGLP2R = target: T1, huGLP2R (Homo sapiens, UniProt O95838); test: CRE-luc reporter assay, huGLP2R; settings: Table 3, HEK293T, 6 h, mean ± S.E. of at least three independent experiments, NR = no response
T1 construct: host or cells: HEK293T
T1 sequence (O95838 1-553): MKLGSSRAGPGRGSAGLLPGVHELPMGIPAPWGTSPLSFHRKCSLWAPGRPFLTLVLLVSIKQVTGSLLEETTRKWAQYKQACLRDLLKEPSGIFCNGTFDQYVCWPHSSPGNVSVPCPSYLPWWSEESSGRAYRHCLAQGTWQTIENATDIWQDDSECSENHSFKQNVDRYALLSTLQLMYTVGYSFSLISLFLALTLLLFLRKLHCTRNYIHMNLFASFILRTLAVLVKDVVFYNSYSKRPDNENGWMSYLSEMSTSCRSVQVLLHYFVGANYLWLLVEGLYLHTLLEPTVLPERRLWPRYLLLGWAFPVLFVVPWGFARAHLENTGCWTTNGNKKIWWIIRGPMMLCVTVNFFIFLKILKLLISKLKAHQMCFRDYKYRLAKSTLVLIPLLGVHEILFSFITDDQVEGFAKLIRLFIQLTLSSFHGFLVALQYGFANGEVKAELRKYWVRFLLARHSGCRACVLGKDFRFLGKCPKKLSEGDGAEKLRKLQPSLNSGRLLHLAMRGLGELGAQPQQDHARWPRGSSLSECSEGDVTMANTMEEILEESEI

huGCGR = target: T2, huGCGR (Homo sapiens, UniProt P47871); test: CRE-luc reporter assay, huGCGR; settings: Table 3, HEK293T, 6 h, mean ± S.E. of at least three independent experiments, NR = no response
T2 construct: host or cells: HEK293T

huGLP1R = huGLP1R (Homo sapiens, UniProt P43220); test: CRE-luc reporter assay, huGLP1R; settings: Table 3, HEK293T, 6 h, mean ± S.E. of at least three independent experiments
huGIPR = target: T3, huGIPR (Homo sapiens, UniProt P48546); test: CRE-luc reporter assay, huGIPR; settings: Table 3, HEK293T, 6 h, mean ± S.E. of at least three independent experiments, NR = no response
T3 construct: expressed in transfected cells; host or cells: HEK293T
T3 sequence (P48546 22-466): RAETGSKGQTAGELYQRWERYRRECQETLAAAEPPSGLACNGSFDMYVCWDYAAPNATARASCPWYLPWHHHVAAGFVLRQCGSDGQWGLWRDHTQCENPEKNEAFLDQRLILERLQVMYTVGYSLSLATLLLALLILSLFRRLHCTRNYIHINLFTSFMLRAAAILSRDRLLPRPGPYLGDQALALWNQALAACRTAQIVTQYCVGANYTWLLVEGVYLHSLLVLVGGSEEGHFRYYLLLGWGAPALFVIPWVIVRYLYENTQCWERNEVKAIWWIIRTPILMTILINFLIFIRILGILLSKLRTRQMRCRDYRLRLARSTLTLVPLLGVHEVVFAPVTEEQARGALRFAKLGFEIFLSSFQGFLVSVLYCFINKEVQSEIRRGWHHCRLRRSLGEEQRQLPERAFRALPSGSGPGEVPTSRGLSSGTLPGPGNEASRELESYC

Sequence of huGLP1R (P43220 24-463): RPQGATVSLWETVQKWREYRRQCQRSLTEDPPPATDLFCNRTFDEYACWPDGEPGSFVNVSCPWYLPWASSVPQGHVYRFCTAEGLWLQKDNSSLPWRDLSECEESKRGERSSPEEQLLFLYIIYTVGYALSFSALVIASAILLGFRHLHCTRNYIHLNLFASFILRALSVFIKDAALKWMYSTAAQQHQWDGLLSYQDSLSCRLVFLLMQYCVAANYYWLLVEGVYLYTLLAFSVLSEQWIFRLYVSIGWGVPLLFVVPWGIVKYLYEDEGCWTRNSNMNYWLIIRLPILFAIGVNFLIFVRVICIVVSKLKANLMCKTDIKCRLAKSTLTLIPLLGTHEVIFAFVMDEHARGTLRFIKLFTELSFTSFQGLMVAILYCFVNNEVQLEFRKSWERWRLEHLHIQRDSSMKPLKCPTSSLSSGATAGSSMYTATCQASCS
T2 sequence (P47871 26-477): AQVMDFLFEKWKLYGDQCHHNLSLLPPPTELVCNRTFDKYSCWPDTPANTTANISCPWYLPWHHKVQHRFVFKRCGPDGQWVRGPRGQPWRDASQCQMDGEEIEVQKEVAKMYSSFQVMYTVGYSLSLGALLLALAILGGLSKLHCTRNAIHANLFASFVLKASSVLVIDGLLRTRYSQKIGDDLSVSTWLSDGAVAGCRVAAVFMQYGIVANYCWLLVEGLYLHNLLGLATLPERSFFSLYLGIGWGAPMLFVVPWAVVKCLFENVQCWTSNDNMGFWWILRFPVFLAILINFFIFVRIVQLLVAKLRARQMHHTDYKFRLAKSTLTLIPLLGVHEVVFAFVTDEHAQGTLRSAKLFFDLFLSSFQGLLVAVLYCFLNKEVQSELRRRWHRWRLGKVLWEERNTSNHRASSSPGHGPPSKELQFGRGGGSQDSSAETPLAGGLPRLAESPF

EC50 (huGLP2R)	EC50 (huGCGR)	EC50 (huGLP1R)	EC50 (huGIPR)	SMILES
592 ± 127 nM	42.7 ± 14.5 nM	48.9 ± 9.15 nM	> 10000 nM	CC[C@H](C)[C@H](NC(=O)[C@H](CC(C)C)NC(=O)[C@H](Cc1c[nH]c2ccccc12)NC(=O)[C@H](Cc1c[nH]cn1)NC(=O)[C@@H](NC(=O)[C@H](Cc1ccccc1)NC(=O)[C@H](CC(=O)O)NC(=O)[C@H](CCCCN)NC(=O)[C@H](C)NC(=O)[C@H](CCCCN)NC(=O)[C@H](CCSC)NC(=O)[C@H](CCCCN)NC(=O)[C@H](CC(=O)O)NC(=O)[C@H](CC(C)C)NC(=O)[C@H](Cc1ccc(O)cc1)NC(=O)[C@H](CCCNC(=N)N)NC(=O)[C@@H](NC(=O)[C@H](Cc1ccccc1)NC(=O)[C@H](CC(=O)O)NC(=O)[C@H](CO)NC(=O)[C@@H](NC(=O)[C@H](Cc1ccccc1)NC(=O)[C@@H](NC(=O)CNC(=O)[C@H](CCC(=O)O)NC(=O)[C@H](CO)NC(=O)[C@@H](N)Cc1c[nH]cn1)[C@@H](C)O)[C@@H](C)O)[C@@H](C)O)C(C)C)C(=O)N[C@@H](CC(N)=O)C(=O)N[C@H](C(=O)O)[C@@H](C)O [chGCRP] (H-HSEGTFTSDFTRYLDKMKAKDFVHWLINT-OH)
> 10000 nM	175 ± 41.8 nM	156 ± 32.8 nM	> 10000 nM	CC[C@H](C)[C@H](NC(=O)[C@H](C)NC(=O)[C@H](C)NC(=O)[C@H](CC(C)C)NC(=O)[C@H](Cc1c[nH]c2ccccc12)NC(=O)[C@H](CCC(=O)O)NC(=O)[C@@H](NC(=O)[C@H](Cc1ccccc1)NC(=O)[C@H](CC(N)=O)NC(=O)[C@H](CCCCN)NC(=O)[C@H](C)NC(=O)[C@H](CCCCN)NC(=O)[C@H](CCSC)NC(=O)[C@H](CCCCN)NC(=O)[C@H](CC(=O)O)NC(=O)[C@H](CC(C)C)NC(=O)[C@H](Cc1ccc(O)cc1)NC(=O)[C@H](CC(N)=O)NC(=O)[C@@H](NC(=O)[C@H](CC(C)C)NC(=O)[C@H](CC(=O)O)NC(=O)[C@H](CO)NC(=O)[C@@H](NC(=O)[C@H](Cc1ccccc1)NC(=O)[C@H](CCSC)NC(=O)CNC(=O)[C@H](CC(=O)O)NC(=O)[C@@H](NC(=O)[C@@H](N)Cc1c[nH]cn1)[C@@H](C)O)[C@@H](C)O)[C@@H](C)O)C(C)C)C(=O)N[C@@H](CCCCN)C(=O)N[C@@H](CCC(N)=O)C(=O)N[C@@H](CCC(N)=O)C(=O)N[C@@H](CCC(=O)O)C(=O)O [mdGCRP] (H-HTDGMFTSDLTNYLDKMKAKNFVEWLAAIKQQE-OH)
> 10000 nM	182 ± 39.5 nM	> 1000 nM	> 10000 nM	CSCC[C@H](NC(=O)[C@H](CC(C)C)NC(=O)[C@H](Cc1c[nH]c2ccccc12)NC(=O)[C@H](CCC(N)=O)NC(=O)[C@@H](NC(=O)[C@H](Cc1ccccc1)NC(=O)[C@H](CC(=O)O)NC(=O)[C@H](CCCCN)NC(=O)[C@H](C)NC(=O)[C@H](CCCCN)NC(=O)[C@H](CCSC)NC(=O)[C@H](CCCCN)NC(=O)[C@H](CC(=O)O)NC(=O)[C@H](CC(C)C)NC(=O)[C@H](Cc1ccc(O)cc1)NC(=O)[C@H](CCCNC(=N)N)NC(=O)[C@@H](NC(=O)[C@H](CC(C)C)NC(=O)[C@H](CC(=O)O)NC(=O)[C@H](CO)NC(=O)[C@H](CO)NC(=O)[C@H](Cc1ccccc1)NC(=O)[C@@H](NC(=O)CNC(=O)[C@H](CCC(=O)O)NC(=O)[C@H](CO)NC(=O)[C@@H](N)Cc1c[nH]cn1)[C@@H](C)O)[C@@H](C)O)C(C)C)C(=O)N[C@@H](CC(N)=O)C(=O)O [xeGCRP] (H-HSEGTFSSDLTRYLDKMKAKDFVQWLMN-OH)

— publication PMC3679108, “A Novel Glucagon-Related Peptide (GCRP) and Its Receptor GCRPR Account for Coevolution of Their Family Members in Vertebrates” (PLoS ONE, 2013)
